Molecular target: T1, ACMSD (Mus musculus, UniProt Q8R519)
T1 construct: endogenous in cells; host or cells: primary mouse hepatocytes (frozen, commercial)
Test: Quinolinic acid (QA) levels in primary mouse hepatocytes by LC-MS/MS, as indicator of ACMSD inhibition
Assay type: cell-based
Settings: 3 μM compound, six hours, 500 μM tryptophan, ratio of QA formed with compound versus wells with no compound (DMSO)
Description: Frozen primary mouse hepatocytes were thawed as per manufacturer's instructions and seeded at a density of 300,000 cells/well of a 6-well plate. After resting for a few hours, the cells were incubated with 3 μM of compound resuspended in DMSO in serum-free William's E media supplemented with 500 μM of tryptophan for six hours. After six hours, the cells were washed with phosphate buffer saline (PBS) and harvested in pre-cooled crashing solution (acetonitrile:methanol:water (40%:40%:20% w/w)) containing internal standard (telmisartan and/or verapamil). Ammonium bicarbonate (15%; 30 μL) was added to the lysates, incubated on dry ice for 10 min, centrifuged for 10 min at 14000 rpm and QA levels were quantified using optimized LC-MS/MS methods using an Atlantis, T3 3 μm, 150×4.6 mm column, and 0.1% formic acid in water and 0.2% formic acid in methanol as mobile phase A and B, respectively. The results are shown in Table 1 as a ratio of the amount of QA formed with compound versus the amount of QA in wells with no compound (DMSO). ACMSD is at the junction of the metabolic pathway of tryptophan. Increased QA levels or decreased PA levels would both be indicative of inhibition of ACMSD. When mouse hepatocytes are treated with the compounds of the invention, increased QA levels are observed and are therefore inhibitors of ACMSD.

T1 sequence (Q8R519 whole entry): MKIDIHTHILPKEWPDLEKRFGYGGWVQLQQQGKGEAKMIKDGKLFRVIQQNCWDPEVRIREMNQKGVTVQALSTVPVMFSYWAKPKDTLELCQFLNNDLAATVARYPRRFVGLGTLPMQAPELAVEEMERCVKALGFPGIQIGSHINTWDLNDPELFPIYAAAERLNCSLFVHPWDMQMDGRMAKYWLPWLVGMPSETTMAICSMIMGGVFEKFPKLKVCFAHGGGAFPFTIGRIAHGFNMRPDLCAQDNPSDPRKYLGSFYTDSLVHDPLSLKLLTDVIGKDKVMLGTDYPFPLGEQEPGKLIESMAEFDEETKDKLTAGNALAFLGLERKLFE

Row | Compound | Quinolinic acid ratio (Range)
1 | N#Cc1c(-c2ccccc2)nc(=O)[nH]c1SCC(=O)O [Compound 131, 2-((5-cyano-2-oxo-6-phenyl-2,3-dihydropyrimidin-4-yl)thio)acetic acid] | * (2 to 4)
2 | CNC(=O)c1c(-c2ccc(Cl)cc2)c(C#N)c(SCc2nnn[nH]2)[nH]c1=O [Compound 127, 6-(((1H-tetrazol-5-yl)methyl)thio)-4-(4-chlorophenyl)-5-cyano-N-methyl-2-oxo-1,2-dihydropyridine-3-carboxamide] | * (2 to 4)
3 | N#Cc1c(SCc2nnn[nH]2)[nH]c(=O)c(Cl)c1-c1cccc(C(=O)Nc2ccccc2)c1 [Compound 123, 3-(6-(((1H-tetrazol-5-yl)methyl)thio)-3-chloro-5-cyano-2-oxo-1,2-dihydropyridin-4-yl)-N-phenylbenzamide] | ** (<4 to 6)
4 | N#Cc1c(SCc2nnn[nH]2)[nH]c(=O)c(C(=O)Nc2ccccc2)c1-c1ccc(Cl)cc1 [Compound 124, 6-(((1H-tetrazol-5-yl)methyl)thio)-4-(4-chlorophenyl)-5-cyano-2-oxo-N-phenyl-1,2-dihydropyridine-3-carboxamide] | ** (<4 to 6)
5 | N#Cc1c(SCc2nnn[nH]2)[nH]c(=O)c(C(=O)N2CCCC2)c1-c1ccc(Cl)cc1 [Compound 125, 2-(((1H-tetrazol-5-yl)methyl)thio)-4-(4-chlorophenyl)-6-oxo-5-(pyrrolidine-1-carbonyl)-1,6-dihydropyridine-3-carbonitrile] | ** (<4 to 6)
6 | CC(C)Oc1nc(SCc2nnn[nH]2)[nH]c(=O)n1 [Compound 133, 6-(((1H-tetrazol-5-yl)methyl)thio)-4-isopropoxy-1,3,5-triazin-2(1H)-one] | — (<2)
7 | N#Cc1c(SCc2nnn[nH]2)[nH]c(=O)c(C(=O)N2CCCC2)c1-c1cccc(-c2ccccc2)c1 [Compound 126, 2-(((1H-tetrazol-5-yl)methyl)thio)-4-([1,1′-biphenyl]-3-yl)-6-oxo-5-(pyrrolidine-1-carbonyl)-1,6-dihydropyridine-3-carbonitrile] | ** (<4 to 6)
8 | O=C(O)c1cccc(CSc2nc(-c3ccccc3)nc(=O)[nH]2)c1 [Compound 128, 3-(((6-oxo-4-phenyl-1,6-dihydro-1,3,5-triazin-2-yl)thio)methyl)benzoic acid] | * (2 to 4)

Reference: patent US20260078105A1, “Novel Aminocarboxymuconate Semialdehyde Decarboxylase Inhibitors” (OrsoBio, Inc., priority 2023, published 2026)
